Results: patent US20240043439A1, “COMPOUNDS AS C5AR INHIBITORS” (Kira Pharmaceuticals (Suzhou) Ltd., priority 2020, published 2024)

Tests used:
C5aR [1] = molecular target: T1, C5aR (Homo sapiens (Human), UniProt P21730); assay: Calcium mobilization (U937/C5aR or HEK293/C5aR cells, FLIPR); type: cell-based; conditions: agonist human C5a at EC80, FLIPR
How it was run: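 FLIPR calcium-flux read-out using Fluo-4 Direct-loaded C5aR-expressing U937 or HEK293 cells stimulated with human C5a at its EC80. Compound was applied for 60 min before dye loading (50 min at 37 °C plus 10 min at room temperature) and agonist addition.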

C5aR [2] = molecular target: T1, C5aR; assay: Inhibition of C5a-C5aR binding determined by cell migration assay (U937/C5aR cells); type: cell-based; conditions: U937/C5aR cell migration towards human C5a, 180 min
Protocol: Migration assay was performed by using polycarbonate membrane with 3.0 µm pore (Corning). U937/C5aR cells were collected and washed twice by PBS; cells were suspended in Hank's balanced salt solution (HBSS)+1% FBS buffer at the density of 6×10^6 cells/ml. Cells were premixed with compound and added to insert well, ligand human C5a and compound were added to bottom well in order, gently mix, incubate for 30 min at 37° C., […]. Put insert plate into bottom well, migrate for 180 min at 37° C., […]. Gently remove the insert well, add 50 μl CellTiter-Glo (Promega), gently shaking for 5 min at room temperature, transfer 150 μl mixture to black plate and read luminescence intensity by
microplate reader (BioTek).

[3] = molecular target: human C5a receptor (C5aR) (Homo sapiens (Human), UniProt P21730); assay: Inhibition of C5a-C5aR binding (biotinylated human C5a, U937/C5aR cells, FACS)
How it was run: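 Binding read by flow cytometry as FITC-streptavidin signal (30 min on ice) on washed cells after a 120 min on-ice incubation of compound with biotinylated human C5a (30 nM working solution). Cells used were C5aR-transfected U937, suspended at 3×10^6 cells/ml in PBS containing 0.1% BSA.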

T1 sequence (P21730 whole entry): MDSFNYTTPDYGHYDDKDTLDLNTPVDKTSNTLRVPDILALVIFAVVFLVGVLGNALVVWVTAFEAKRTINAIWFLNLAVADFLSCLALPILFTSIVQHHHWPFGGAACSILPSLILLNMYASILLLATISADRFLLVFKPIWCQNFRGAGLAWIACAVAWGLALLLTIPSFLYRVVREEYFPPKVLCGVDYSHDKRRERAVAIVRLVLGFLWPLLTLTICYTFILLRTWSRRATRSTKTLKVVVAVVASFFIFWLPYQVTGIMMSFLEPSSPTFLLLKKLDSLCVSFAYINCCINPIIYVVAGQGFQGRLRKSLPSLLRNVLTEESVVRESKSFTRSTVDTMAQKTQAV
human C5a receptor (C5aR), sequence (P21730 whole entry): as above

| IC50 (C5aR [1]) | IC50 [3] | SMILES | IC50 (C5aR [2]) |
| --- | --- | --- | --- |
| 50 to 500 nM | – | Cc1cccc(F)c1C(=O)N1[C@@H]2CCC[C@@H]2C[C@H](C(=O)Nc2ccc3cnn(C)c3c2)[C@@H]1c1ccc(NC2CCCC2)cc1 (racemic) [Compound 66, cis-2-(4-(cyclopentylamino)phenyl)-1-(2-fluoro-6-methylbenzoyl)-N-(1-methyl-1H-indazol-6-yl)octahydro-1H-cyclopenta[b]pyridine-3-carboxamide] | < 50 nM |
| 2000 to 10000 nM | 2000 to 5000 nM | Cc1ccc(NC(=O)[C@H]2CCCN(S(=O)(=O)c3ccccc3C#N)[C@H]2c2ccc(NC3CCCC3)cc2)cc1C(F)(F)F [Compound 30, (2R,3S)-1-((2-cyanophenyl)sulfonyl)-2-(4-(cyclopentylamino)phenyl)-N-(4-methyl-3-(trifluoromethyl)phenyl)piperidine-3-carboxamide] | – |
| 2000 to 10000 nM | 2000 to 5000 nM | Cc1ccc(NC(=O)[C@H]2CCCN(S(=O)(=O)c3ccc4ccccc4c3)[C@H]2c2ccc(NC3CCCC3)cc2)cc1C(F)(F)F [Compound 32, (2R,3S)-2-(4-(cyclopentylamino)phenyl)-N-(4-methyl-3-(trifluoromethyl)phenyl)-1-(naphthalen-2-ylsulfonyl)piperidine-3-carboxamide] | – |
| 2000 to 10000 nM | 2000 to 5000 nM | Cc1ccc(NC(=O)[C@H]2CCCN(S(=O)(=O)c3cccc4ccccc34)[C@H]2c2ccc(NC3CCCC3)cc2)cc1C(F)(F)F [Compound 33, (2R,3S)-2-(4-(cyclopentylamino)phenyl)-N-(4-methyl-3-(trifluoromethyl)phenyl)-1-(naphthalen-1-ylsulfonyl)piperidine-3-carboxamide] | – |
| > 10000 nM | 2000 to 5000 nM | Cc1ccc(NC(=O)[C@H]2CCCN(S(=O)(=O)c3cccnc3)[C@H]2c2ccc(NC3CCCC3)cc2)cc1C(F)(F)F [Compound 35, (2R,3S)-2-(4-(cyclopentylamino)phenyl)-N-(4-methyl-3-(trifluoromethyl)phenyl)-1-(pyridin-3-ylsulfonyl)piperidine-3-carboxamide] | – |
| > 10000 nM | 2000 to 5000 nM | Cc1ccc(NC(=O)[C@H]2CCCN(S(=O)(=O)c3c(C)nn(C)c3C)[C@H]2c2ccc(NC3CCCC3)cc2)cc1C(F)(F)F [Compound 38, (2R,3S)-2-(4-(cyclopentylamino)phenyl)-N-(4-methyl-3-(trifluoromethyl)phenyl)-1-((1,3,5-trimethyl-1H-pyrazol-4-yl)sulfonyl)piperidine-3-carboxamide] | – |
| 2000 to 10000 nM | 2000 to 5000 nM | Cc1cccc(F)c1C(=O)N1[C@@H]2CCC[C@@H]2C[C@H](C(=O)NC2CCOCC2)[C@@H]1c1ccc(NC2CCCC2)cc1 [Compound 52, (2R,3S,4aR,7aR)-2-(4-(cyclopentylamino)phenyl)-1-(2-fluoro-6-methylbenzoyl)-N-(tetrahydro-2H-pyran-4-yl)octahydro-1H-cyclopenta[b]pyridine-3-carboxamide] | – |
| 2000 to 10000 nM | 50 to 500 nM | Cc1ccc(NC(=O)[C@H]2CCCN(c3ncnc4cccnc34)[C@H]2c2ccc(NC3CCCC3)cc2)cc1C(F)(F)F [Compound 161, (2R,3S)-2-(4-(cyclopentylamino)phenyl)-N-(4-methyl-3-(trifluoromethyl)phenyl)-1-(pyrido[3,2-d]pyrimidin-4-yl)piperidine-3-carboxamide] | – |
| 2000 to 10000 nM | 2000 to 5000 nM | Cc1ccc(NC(=O)[C@H]2CCCN(c3ncnc4cccnc34)[C@H]2c2ccc(N(C(=O)OCc3ccccc3)C3CCCC3)cc2)cc1C(F)(F)F [Compound 166, benzyl cyclopentyl(4-((2R,3S)-3-((4-methyl-3-(trifluoromethyl)phenyl)carbamoyl)-1-(pyrido[3,2-d]pyrimidin-4-yl)piperidin-2-yl)phenyl)carbamate] | – |
| 2000 to 10000 nM | 500 to 2000 nM | Cc1ccc(NC(=O)[C@H]2CCCN(C(=O)c3c(C)noc3C)[C@H]2c2ccc(NC3CCCC3)cc2)cc1C(F)(F)F [Compound 190, (2R,3S)-2-(4-(cyclopentylamino)phenyl)-1-(3,5-dimethylisoxazole-4-carbonyl)-N-(4-methyl-3-(trifluoromethyl)phenyl)piperidine-3-carboxamide] | – |
| 2000 to 10000 nM | > 5000 nM | Cc1ccc(NC(=O)[C@H]2CCCN[C@H]2c2ccc(NC3CCCC3)cc2)cc1C(F)(F)F [Compound 200, (2R,3S)-2-(4-(cyclopentylamino)phenyl)-N-(4-methyl-3-(trifluoromethyl)phenyl)piperidine-3-carboxamide] | – |

The remaining lines, values behind:

| SMILES | IC50 (C5aR [1]) | IC50 [3] | IC50 (C5aR [2]) |
| --- | --- | --- | --- |
| Cc1ccc(NC(=O)[C@H]2CC[C@@H]3Cc4ccccc4C(=O)N3C2c2ccc(NC3CCCC3)cc2)cc1C(F)(F)F (relative stereo) [Compound 43, cis-4-(4-(cyclopentylamino)phenyl)-N-(4-methyl-3-(trifluoromethyl)phenyl)-6-oxo-1,3,4,6,11,11a-hexahydro-2H-pyrido[1,2-b]isoquinoline-3-carboxamide] | 2000 to 10000 nM | – | > 5000 nM |
| Cc1ccc(NC(=O)C2C[C@@H]3CN(C)C[C@@H]3N(C(=O)c3c(C)cccc3F)C2c2ccc(N(C)C3CCCC3)cc2)cc1C(F)(F)F (relative stereo) [Compound 144, cis-2-(4-(cyclopentyl(methyl)amino)phenyl)-1-(2-fluoro-6-methylbenzoyl)-6-methyl-N-(4-methyl-3-(trifluoromethyl)phenyl)octahydro-1H-pyrrolo[3,4-b]pyridine-3-carboxamide] | 2000 to 10000 nM | – | 50 to 500 nM |
| Cc1ccc(NC(=O)C2C[C@@H]3CCC[C@@H]3N(C(=O)c3c(C)cccc3F)C2c2ccc(NC3CCCC3)cc2)cc1C(F)(F)F (relative stereo) [Compound 193, cis-2-(4-(cyclopentylamino)phenyl)-1-(2-fluoro-6-methylbenzoyl)-N-(4-methyl-3-(trifluoromethyl)phenyl)octahydro-1H-cyclopenta[b]pyridine-3-carboxamide] | < 50 nM | – | 50 to 500 nM |
| Cc1ccc(NC(=O)[C@H]2CCCN(C(=O)c3c(C)cccc3F)[C@H]2C2CCC3(CCOC3)CC2)cc1C(F)(F)F (relative stereo) [Compound 203, cis-1-(2-fluoro-6-methylbenzoyl)-N-(4-methyl-3-(trifluoromethyl)phenyl)-2-(2-oxaspiro[4.5]decan-8-yl)piperidine-3-carboxamide] | 2000 to 10000 nM | – | 500 to 2000 nM |
| Cc1ccc(NC(=O)[C@@H]2CC(O)CN(C(=O)c3c(C)cccc3F)[C@@H]2c2ccc(NC3CCCC3)cc2)cc1C(F)(F)F (relative stereo) [Compound 204, cis-2-(4-(cyclopentylamino)phenyl)-1-(2-fluoro-6-methylbenzoyl)-5-hydroxy-N-(4-methyl-3-(trifluoromethyl)phenyl)piperidine-3-carboxamide] | 2000 to 10000 nM | – | 50 to 500 nM |
| Cc1cccc(F)c1C(=O)N1C2CCCC2CC(C(=O)Nc2ccc3c(cnn3C)c2)C1c1ccc(CN2CCC[C@@H]2C(F)(F)F)cc1 (stereo in doubt) [Compound 205, cis-1-(2-fluoro-6-methylbenzoyl)-N-(1-methyl-1H-indazol-5-yl)-2-(4-(((R)-2-(trifluoromethyl)pyrrolidin-1-yl)methyl)phenyl)octahydro-1H-cyclopenta[b]pyridine-3-carboxamide] | – | – | < 50 nM |
| Cc1ccc(NC(=O)[C@H]2CCCN(S(=O)(=O)c3ccccc3)[C@H]2c2ccc(NC3CCCC3)cc2)cc1C(F)(F)F [Compound 34, (2R,3S)-2-(4-(cyclopentylamino)phenyl)-N-(4-methyl-3-(trifluoromethyl)phenyl)-1-(phenylsulfonyl)piperidine-3-carboxamide] | > 10000 nM | 2000 to 5000 nM | – |
| Cc1ccc(NC(=O)[C@H]2CCCN(S(=O)(=O)c3cccnc3Cl)[C@H]2c2ccc(NC3CCCC3)cc2)cc1C(F)(F)F [Compound 36, (2R,3S)-1-((2-chloropyridin-3-yl)sulfonyl)-2-(4-(cyclopentylamino)phenyl)-N-(4-methyl-3-(trifluoromethyl)phenyl)piperidine-3-carboxamide] | 2000 to 10000 nM | 500 to 2000 nM | – |
| Cc1ccc(NC(=O)[C@H]2CCCN(S(=O)(=O)Cc3ccccc3)[C@H]2c2ccc(NC3CCCC3)cc2)cc1C(F)(F)F [Compound 40, (2R,3S)-1-(benzylsulfonyl)-2-(4-(cyclopentylamino)phenyl)-N-(4-methyl-3-(trifluoromethyl)phenyl)piperidine-3-carboxamide] | 2000 to 10000 nM | < 50 nM | – |
| Cc1cccc(F)c1C(=O)N1[C@@H]2CCC[C@@H]2C[C@H](C(=O)Nc2ccc3cnn(C)c3c2)[C@@H]1c1ccc(NC2CCCC2)cc1 [Compound 50, (2R,3S,4aR,7aR)-2-(4-(cyclopentylamino)phenyl)-1-(2-fluoro-6-methylbenzoyl)-N-(1-methyl-1H-indazol-6-yl)octahydro-1H-cyclopenta[b]pyridine-3-carboxamide] | 500 to 2000 nM | < 50 nM | – |
| Cc1cccc(F)c1C(=O)N1C2CCCC2CC(C(=O)Nc2ccc3c(c2)CCN(C(=O)OC(C)(C)C)C3)C1c1ccc(NC2CCCC2)cc1 (stereo not drawn) [Compound 202, tert-butyl 6-cis-2-(4-(cyclopentylamino)phenyl)-1-(2-fluoro-6-methylbenzoyl)octahydro-1H-cyclopenta[b]pyridine-3-carboxamido)-3,4-dihydroisoquinoline-2(1H)-carboxylate] | 2000 to 10000 nM | > 5000 nM | – |
